{"source": "paper PMC7716890", "about": "(Clinical Pharmacokinetics, 2020)", "key": {"[1]": {"experiment": "Plasma concentrations of the transporter inhibitors around expected time to Cmax", "assay_type": "in vivo, healthy male subjects", "settings": "cimetidine 400 mg multiple doses; current study"}, "[2]": {"settings": "cited from earlier work"}, "[3]": {"settings": "for AUC0–tz Ratio T/R / Cmax Ratio T/R: cocktail + cimetidine vs cocktail alone"}, "[4]": {"settings": "for AUC0–tz Ratio T/R / Cmax Ratio T/R: cocktail + probenecid vs cocktail alone"}, "[5]": {"experiment": "Safety and tolerability assessment", "assay_type": "in vivo, healthy male subjects", "settings": "one subject, upon administration of probenecid 1000 mg"}, "[6]": {"settings": "cocktail + rifampin vs cocktail alone"}, "[7]": {"settings": "cocktail + verapamil vs cocktail alone"}, "[8]": {"settings": "cocktail with single-dose rifampin vs cocktail alone"}, "[9]": {"settings": "cocktail with single-dose verapamil vs cocktail alone"}, "[10]": {"settings": "cocktail (metformin 10 mg) with cimetidine vs cocktail alone"}, "[11]": {"settings": "cocktail (furosemide 1 mg) with probenecid vs cocktail alone"}, "[12]": {"settings": "metformin 500 mg with cimetidine vs alone"}}, "note": "Entries after “also recorded” stand apart in the source; their conditions may differ. Like-named read-outs stand apart in the source and are kept apart here."}
{"compound": "CN/C(=N/CCSCc1nc[nH]c1C)NC#N", "note": "[Cimetidine, cimetidine]", "values": [{"measurement": "maximum plasma concentrations", "setting": "[1]", "value": "4.24 to 11.1", "unit": "µM"}]}
{"compound": "C[C@H]1O[C@@H](O[C@H]2[C@@H](O)C[C@H](O[C@H]3[C@@H](O)C[C@H](O[C@H]4CC[C@@]5(C)[C@H](CC[C@@H]6[C@@H]5C[C@@H](O)[C@]5(C)[C@@H](C7=CC(=O)OC7)CC[C@]65O)C4)O[C@@H]3C)O[C@@H]2C)C[C@H](O)[C@@H]1O", "note": "[Digoxin, digoxin]", "values": [{"measurement": "increase in exposure", "setting": "[2]; digoxin with verapamil administered over multiple days", "value": "44–77%"}, {"measurement": "AUC0–tz Ratio T/R", "setting": "[6]", "value": 131.41, "unit": "%"}, {"measurement": "Cmax Ratio T/R", "setting": "[6]", "value": 218.26, "unit": "%"}, {"measurement": "AUC0–tz Ratio T/R", "setting": "[7]", "value": 100.70, "unit": "%"}, {"measurement": "Cmax Ratio T/R", "setting": "[7]", "value": 121.64, "unit": "%"}, {"measurement": "increase of AUC0–tz", "setting": "[8]", "value": 31, "unit": "%"}, {"measurement": "increase of Cmax", "setting": "[8]", "value": 118, "unit": "%"}, {"measurement": "effect on AUC0–tz", "setting": "[9]", "value": "unaltered; also recorded: unchanged"}, {"measurement": "effect on CLR", "setting": "[9]", "value": "unchanged"}, {"measurement": "increase of Cmax", "setting": "[9]", "value": 22, "unit": "%"}, {"measurement": "increase of AUC0–tz", "setting": "[3]; [10]", "value": 26, "unit": "%"}, {"measurement": "AUC0–tz Ratio T/R", "setting": "[3]", "value": 125.61, "unit": "%"}, {"measurement": "Cmax Ratio T/R", "setting": "[3]", "value": 122.03, "unit": "%"}, {"measurement": "AUC0–tz Ratio T/R", "setting": "[4]", "value": 106.78, "unit": "%"}, {"measurement": "Cmax Ratio T/R", "setting": "[4]", "value": 87.07, "unit": "%"}, {"measurement": "effect of probenecid on systemic exposure", "setting": "[4]; cocktail with probenecid vs cocktail alone", "value": "no relevant effect"}]}
{"compound": "NS(=O)(=O)c1cc(C(=O)O)c(NCc2ccco2)cc1Cl", "note": "[Furosemide, furosemide]", "values": [{"measurement": "decrease of CLR", "setting": "[4]; [11]", "value": 74, "unit": "%"}, {"measurement": "decrease of CLR", "setting": "[4]; furosemide 40 mg with probenecid vs alone", "value": 76, "unit": "%"}]}
{"compound": "CN(C)C(=N)N=C(N)N", "note": "[Metformin, metformin]", "values": [{"measurement": "increase in systemic exposure", "setting": "[2]; metformin with cimetidine, previous findings", "value": "45–70%"}, {"measurement": "increase in exposure", "setting": "[2]; metformin with rifampin coadministration", "value": 10, "unit": "%"}, {"measurement": "increase of AUC0–tz", "setting": "[3]; [10]", "value": 31, "unit": "%"}, {"measurement": "increase of Cmax", "setting": "[3]; [10]", "value": 23, "unit": "%"}, {"measurement": "increase of AUC0–tz", "setting": "[3]; [12]", "value": 51, "unit": "%"}, {"measurement": "increase of Cmax", "setting": "[3]; [12]", "value": 41, "unit": "%"}]}
{"compound": "CCCN(CCC)S(=O)(=O)c1ccc(C(=O)O)cc1", "note": "[Probenecid, probenecid]", "values": [{"measurement": "AEs leading to premature withdrawal from treatment", "setting": "[5]", "value": "nausea, dizziness"}]}
{"compound": "CC(C)c1nc(N(C)S(C)(=O)=O)nc(-c2ccc(F)cc2)c1/C=C/[C@@H](O)C[C@@H](O)CC(=O)O", "note": "[Rosuvastatin, rosuvastatin]", "values": [{"measurement": "AUC0–tz Ratio T/R", "setting": "[6]", "value": 348.06, "unit": "%"}, {"measurement": "Cmax Ratio T/R", "setting": "[6]", "value": 1125.10, "unit": "%"}, {"measurement": "AUC0–tz Ratio T/R", "setting": "[7]", "value": 113.40, "unit": "%"}, {"measurement": "Cmax Ratio T/R", "setting": "[7]", "value": 115.39, "unit": "%"}, {"measurement": "increase of AUC0–tz", "setting": "[8]", "value": 248, "unit": "%"}, {"measurement": "increase of Cmax", "setting": "[8]", "value": 1025, "unit": "%"}, {"measurement": "effect of verapamil on systemic exposure", "setting": "[9]", "value": "no effect"}, {"measurement": "AUC0–tz Ratio T/R", "setting": "[3]", "value": 107.42, "unit": "%"}, {"measurement": "Cmax Ratio T/R", "setting": "[3]", "value": 116.88, "unit": "%"}, {"measurement": "effect of cimetidine on systemic exposure", "setting": "[3]; cocktail with cimetidine vs cocktail alone", "value": "no effect"}, {"measurement": "decrease of CLR", "setting": "[4]; [11]", "value": 78, "unit": "%"}, {"measurement": "increase of AUC0–tz", "setting": "[4]; [11]", "value": 123, "unit": "%"}, {"measurement": "increase of Cmax", "setting": "[4]; [11]", "value": 328, "unit": "%"}, {"measurement": "AUC0–tz Ratio T/R", "setting": "[4]", "value": 223.24, "unit": "%"}, {"measurement": "Cmax Ratio T/R", "setting": "[4]", "value": 428.23, "unit": "%"}]}
